In US11214803B2, “Modulators of YAP1 expression” (Ionis Pharmaceuticals, Inc., priority 2019, dated 2022):
Strand notation (5' to 3'): a small letter for the sugar, then the base; units joined by * are phosphorothioate-linked, units joined directly phosphodiester-linked; [ ] holds rarer units or linkages, { } end groups; capitals alone tell only the bases. e = 2'-O-(2-methoxyethyl) (MOE); k = constrained ethyl (cEt); [5mC] = 5-methylcytosine; d = 2'-deoxy (DNA); m = 2'-O-methyl

Tested on: Yap1 mRNA
Assay: Antisense inhibition of human Yap1 in SNU-449 cells by modified oligonucleotides, single dose (Example 5, RTS36584)
Type: cell-based
Conditions: Table 39; SNU-449 cells, 10,000 cells per well, free uptake, 2,000 nM oligonucleotide, approx. 48 hours; RTS36584; normalized to RIBOGREEN; Yap1 mRNA relative to untreated control
Outline: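 Free uptake, 2,000 nM, ~48 h, SNU-449 at 10,000 cells/well. Read-out: qRT-PCR (RTS36584), RIBOGREEN-normalised, expressed as % UTC. Asterisk = oligo hits amplicon region.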

Substance	YAP1 (% UTC)
1198377 (kA*dT*dG*dG*dA*dA*dA*dT*dT*dG*dT*k[5mC]*eT*k[5mC]*eA*kT; antisense) [Compound 1198377]	30 % UTC

Same assay, conditions: Table 40 (separate experiment); SNU-449 cells, 10,000 cells per well, free uptake, 2,000 nM oligonucleotide, approx. 48 hours; RTS36584; normalized to RIBOGREEN; Yap1 mRNA relative to untreated control

Substance	YAP1 (% UTC)
1198764 (kA*eG*kA*dT*dT*dT*dA*dG*dG*dA*dT*dG*e[5mC]*eA*kT*kG; antisense) [Compound 1198764]	28 % UTC
1198722 (kA*eT*kA*dT*dG*dG*dA*dA*dA*dT*dT*dG*eT*e[5mC]*kT*k[5mC]; antisense) [Compound 1198722]	48 % UTC
1198725 (kT*eA*kG*dA*dG*dT*dA*dT*dG*dT*dG*dG*e[5mC]*eA*kA*kT; antisense) [Compound 1198725]	23 % UTC

Same assay, conditions: Table 41; SNU-449 cells, 10,000 cells per well, free uptake, 2,000 nM modified oligonucleotide, approximately 48 hours; RTS36584; normalized to RIBOGREEN; Yap1 mRNA relative to untreated control cells

Substance	YAP1 (% UTC)
1198794 (antisense kA*eA*k[5mC]*dT*dT*dT*dA*dA*dA*dG*dT*dG*eT*eA*kT*kG) [Compound 1198794]	74 % UTC
1198641 (kA*kT*dT*dA*dG*dA*dG*dT*dA*dT*dG*dT*kG*eG*k[5mC]*eA; antisense) [Compound 1198641]	15 % UTC

Same assay, conditions: Table 42 (separate experiment); SNU-449 cells, 10,000 cells per well, free uptake, 2,000 nM modified oligonucleotide, approximately 48 hours; RTS36584; normalized to RIBOGREEN; Yap1 mRNA relative to untreated control cells

Substance	YAP1 (% UTC)
1198222 (kT*kT*dT*dT*dA*d[5mC]*dA*dT*dT*dA*dG*eG*eA*eA*k[5mC]*kA) [Compound 1198222]	87 % UTC
1198227 (kA*kG*d[5mC]*dA*d[5mC]*dT*dT*dT*dT*dA*d[5mC]*eA*eT*eT*kA*kG; antisense) [Compound 1198227]	104 % UTC
1198712 (kA*kG*dA*d[5mC]*dT*dA*dA*dG*dT*dA*dA*dG*kG*eT*kT*eT; antisense) [Compound 1198712]	110 % UTC

Same assay, conditions: Table 43 experiment; SNU-449 cells, 10,000 cells per well, free uptake, 2,000 nM, approximately 48 hours; RTS36584; Yap1 mRNA normalized to RIBOGREEN, relative to untreated control cells

Substance	YAP1 (% UTC)
1198249 (kT*kT*dA*dT*dA*dT*dG*dG*dT*dT*dT*eT*eG*eT*kG*kT; antisense) [Compound 1198249]	42 % UTC
1198472 (antisense kT*kA*dT*dA*dT*dT*dA*dG*dA*dG*dT*eA*kT*eG*kT*eG) [Compound 1198472]	60 % UTC
1198267 (kA*kG*dT*dG*dT*dA*dT*dG*dT*d[5mC]*dA*eG*eA*eA*kG*kA; antisense) [Compound 1198267]	7 % UTC
1198274 (kA*kA*d[5mC]*dT*dT*dT*dA*dA*dA*dG*dT*eG*eT*eA*kT*kG; antisense) [Compound 1198274]	69 % UTC
1198271 (kT*kT*dA*dA*dA*dG*dT*dG*dT*dA*dT*eG*eT*e[5mC]*kA*kG) [Compound 1198271]	44 % UTC
1198245 (k[5mC]*kA*dG*dA*dT*dT*dT*dA*dG*dG*dA*eT*eG*e[5mC]*kA*kT; antisense) [Compound 1198245]	46 % UTC

Same assay, conditions: Table 44 experiment; SNU-449 cells, 10,000 cells per well, free uptake, 2,000 nM, approximately 48 hours; RTS36584; Yap1 mRNA normalized to RIBOGREEN, relative to untreated control cells

Substance	YAP1 (% UTC)
1198524 (kT*kG*dT*dA*dT*dG*dT*d[5mC]*dA*dG*dA*eA*kG*eA*kG*eT; antisense) [Compound 1198524]	3 % UTC
1198486 (antisense kA*kA*dG*d[5mC]*dA*d[5mC]*dT*dT*dT*dT*dA*e[5mC]*kA*eT*kT*eA) [Compound 1198486]	39 % UTC
1198528 (kT*kA*dA*dA*dG*dT*dG*dT*dA*dT*dG*eT*k[5mC]*eA*kG*eA; antisense) [Compound 1198528]	14 % UTC
1095621 (antisense kT*kG*dA*dG*dG*dT*dA*dT*dA*dA*d[5mC]*eT*kG*eG*kG*e[5mC]) [Compound 1095621]	22 % UTC

Same assay, conditions: Table 45; Yap1 mRNA as percent of untreated control, SNU-449 cells, single dose

Substance	YAP1 (% UTC)
1198930 (kA*kT*dA*dG*dT*dG*d[5mC]*dT*dT*dT*dG*kG*dA*kA*dG*kA; antisense) [Compound 1198930]	68 % UTC
1198945 (kA*k[5mC]*dT*d[5mC]*dT*dT*dA*dT*dA*dT*dG*kG*dT*kT*dT*kT; antisense) [Compound 1198945]	48 % UTC
1198952 (kT*kA*dA*dT*dA*dT*dT*dG*d[5mC]*dA*kA*kT*d[5mC]*kT*dG*kT; antisense) [Compound 1198952]	77 % UTC
1198932 (kT*kT*dA*dG*dG*dA*dT*dG*d[5mC]*dA*dT*kG*dG*kT*dT*kT; antisense) [Compound 1198932]	35 % UTC

Same assay, conditions: Table 46; Yap1 mRNA as percent of untreated control, SNU-449 cells, single dose

Substance	YAP1 (% UT)
1198888 (kA*kG*dA*d[5mC]*dT*dA*dA*dG*dT*dA*dA*kG*eG*kT*eT*kT; antisense) [Compound 1198888]	51 % UT
1198836 (kG*kG*dA*dA*dG*dA*dT*d[5mC]*dT*dG*dA*kA*eA*k[5mC]*eT*k[5mC]; antisense) [Compound 1198836]	43 % UT
1198823 (kG*kG*dT*dA*dT*dA*dA*d[5mC]*dT*dG*dG*kG*e[5mC]*kA*eA*kA; antisense) [Compound 1198823]	65 % UT
1198882 (kA*kG*dT*dA*dA*dG*dG*dT*dT*dT*d[5mC]*k[5mC]*e[5mC]*kA*eG*kA; antisense) [Compound 1198882]	56 % UT
1198819 (kA*kT*dA*dT*dT*dA*dG*dA*dG*dT*dA*kT*eG*kT*eG*kG; antisense) [Compound 1198819]	44 % UT
1198811 (antisense kA*kT*dG*dG*dA*dA*dA*dT*dT*dG*dT*k[5mC]*eT*k[5mC]*eA*kT) [Compound 1198811]	38 % UT

Same assay, conditions: Table 48; Yap1 mRNA level relative to untreated control; modified oligonucleotides targeting SEQ ID NO.: 1 and 2

Substance	YAP1 (% UT)
1198314 (kA*kA*kG*d[5mC]*dA*d[5mC]*dT*dT*dT*dT*dA*d[5mC]*kA*eT*kT*eA; antisense) [Compound 1198314]	82 % UT

Same assay, conditions: Table 49; Yap1 mRNA level relative to untreated control; modified oligonucleotides targeting SEQ ID NO.: 1 and 2

Substance	YAP1 (% UT)
1198545 (antisense kA*kA*kA*dT*dT*dG*dT*d[5mC]*dT*d[5mC]*dA*dT*kG*k[5mC]*k[5mC]*eT) [Compound 1198545]	32 % UT
1198556 (antisense kT*kA*kT*dT*dA*dG*dA*dG*dT*dA*dT*dG*kT*kG*kG*e[5mC]) [Compound 1198556]	25 % UT
1198342 (kG*kA*k[5mC]*dA*dA*d[5mC]*dT*d[5mC]*dT*dT*dA*dT*kA*eT*kG*eG; antisense) [Compound 1198342]	101 % UT
1198336 (k[5mC]*kT*kT*dA*dT*dA*dT*dG*dG*dT*dT*dT*kT*eG*kT*eG; antisense) [Compound 1198336]	31 % UT

Same assay, conditions: Table 50; Yap1 mRNA remaining as percent of untreated control (UT), SNU-449 cells, single dose

Substance	YAP1 (% UT)
1197283 (kG*kA*kA*dA*mU*dT*dG*dT*d[5mC]*dT*d[5mC]*dA*dT*kG*k[5mC]*k[5mC]; antisense) [Compound 1197283]	29 % UT
1198597 (antisense kA*k[5mC]*kT*d[5mC]*dT*dT*dA*dT*dA*dT*dG*dG*kT*kT*kT*eT) [Compound 1198597]	27 % UT
1198623 (k[5mC]*kT*kA*dA*dG*dT*dA*dA*dG*dG*dT*dT*kT*k[5mC]*k[5mC]*e[5mC]; antisense) [Compound 1198623]	9 % UT
1198591 (antisense kA*kT*kT*d[5mC]*dA*dG*dA*dT*dT*dT*dA*dG*kG*kA*kT*eG) [Compound 1198591]	106 % UT
1198612 (antisense kA*kA*kG*dT*dG*dT*dA*dT*dG*dT*d[5mC]*dA*kG*kA*kA*eG) [Compound 1198612]	5 % UT

Same assay, conditions: Table 51; Yap1 mRNA remaining as percent of untreated control (UT), SNU-449 cells, single dose

Substance	YAP1 (% UT)
1197271 (kT*kT*kT*dA*mA*dA*dG*dT*dG*dT*dA*dT*dG*kT*k[5mC]*kA) [Compound 1197271]	12 % UT
1200785 (kA*kT*kT*dG*dT*mC*dT*d[5mC]*dA*dT*dG*d[5mC]*d[5mC]*kT*kT*kA; antisense) [Compound 1200785]	15 % UT
1200798 (kT*kA*kT*dT*dA*mG*dA*dG*dT*dA*dT*dG*dT*kG*kG*k[5mC]; antisense) [Compound 1200798]	7 % UT

Same assay, conditions: Table 52; Yap1 mRNA, modified oligonucleotides targeting SEQ ID NO: 1 and 2

Substance	YAP1 (% UT)
1200849 (kA*kA*kT*dA*dT*mU*dG*d[5mC]*dA*dA*dT*d[5mC]*dT*kG*kT*k[5mC]; antisense) [Compound 1200849]	53 % UT
1200830 (kT*kT*kA*dG*dG*mA*dT*dG*d[5mC]*dA*dT*dG*dG*kT*kT*kT; antisense) [Compound 1200830]	50 % UT
1200862 (kT*kT*kT*dA*dA*mA*dG*dT*dG*dT*dA*dT*dG*kT*k[5mC]*kA; antisense) [Compound 1200862]	17 % UT

Same assay, conditions: Yap1 mRNA, percent of untreated control; modified oligonucleotides targeting SEQ ID NO: 1 and 2; Table 47

Substance	YAP1 (% UT)
1197182 (antisense kT*kT*kT*dT*dA*d[5mC]*dA*dT*dT*dA*dG*dG*dA*kA*k[5mC]*kA) [Compound 1197182]	115 % UT
1009394 (kT*kA*kT*dA*dA*d[5mC]*dT*dG*dG*dG*d[5mC]*dA*dA*kA*kT*kT; antisense) [Compound 1009394]	73 % UT
1009328 (kT*kA*kT*dA*dT*dT*dA*dG*dA*dG*dT*dA*dT*kG*kT*kG; antisense) [Compound 1009328]	67 % UT
1197181 (antisense kT*kT*kA*d[5mC]*dA*dT*dT*dA*dG*dG*dA*dA*d[5mC]*kA*kA*kG) [Compound 1197181]	87 % UT
